Experiments:
[1] = biological target: GLP-1 Receptor (Homo sapiens (Human), UniProt P43220); assay: GLP-1R agonist cAMP stimulation assay (HEK293/GLP1R/CRE-LUC cells); assay type: cell-based; details: 30 min incubation, read-out: GLP1R cAMP Stimulation DR: EC50
Procedure: Activation of GLP-1 receptor is known to stimulate cyclic AMP (cAMP) production in cells which indicates primary coupling to the Gαs subunit of the G protein heterotrimeric complex.
To optimize functional activity directed toward Gαs coupling, a HEK293/CRELuc cell line developed by HDB stably expressing the GLP-1 Receptor was used. 200× concentration of compound working solutions were prepared (Agilent Technologies Bravo) with 1/2 log serial dilution in 384-well Echo LDV plate (Labcyte, Cat #LP-0200). 50 nL/well 200× concentration of compound working solutions were moved to 384-well white low volume plate (Greiner, Cat #784075) using Labcyte ECHO550. 1×10^5 cells/mL HEK293/GLP1R/CRE-LUC (HD Biosciences) cell suspensions prepared with assay buffer [DPBS containing 0.5 mM IBMX (Sigma,Cat #I5879) and 0.1% BSA (GENVIEW, Cat #FA016-100 g)], 10 uL cell suspensions were added to each well of previous generated assay plate which already contains 50 nl compound at 200× concentration using ThermoFisher Multidrop Combi (1000cells/well). Seal the plate and incubate at 37° C. with 5% CO2 for 30 min.
After incubation the CAMP assay signal was generated using cAMP dynamic 2 Kit (Cisbio). 5 μL cAMP-d2 working solution was added to each well, followed with 5 μL Anti-cAMP antibody-cryptate working solution added to each well using ThermoFisher Multidrop Combi. Incubate at room temperature for 1 hour protected from light. Read the fluorescence at 665 and 615 nm with Reader PerkinElmer En Vision.

[2] = Nonhuman primate (NHP) pharmacokinetics (PK) study; assay type: in vivo, cynomolgus monkey; details: male NHP
Procedure: Pharmacokinetics (PK) study was conducted on male NHP (e.g. cynomolgus monkey) by two delivery routes intravenous (IV) and/or oral gavage (PO). NHP in IV route (n=3) were free access to food and water. NHP in PO route (n=3) were fasted overnight and fed at 4 hrs post dosing. Test article was formulated in solution for IV route and solution or suspension for PO route, respectively.
On the day of experiment, test article was administered via vein (e.g. cephalic vein) injection (commonly at 0.2 to 1 mg/kg and 1 to 2 mL/kg) for IV route or via oral gavage (commonly at 1 to 100 mg/kg and 2 to 10 mL/kg) for PO route, respectively.
Blood samples were collected via serial bleeding at ˜8 time points from 0.083 to 24 hours post dose. Approximate 500 μL of blood/time point was collected into EDTA-K2 tube via cephalic or saphenous vein. Blood samples were put on wet ice and centrifuged to obtain plasma samples and plasma samples were submitted to LCMS/MS for sample analysis.
Pharmacokinetics parameters, including maximum plasma concentration (Cmax), time to reach maximum plasma concentration (Tmax), area under the curve (AUC0-4) and oral bioavailability (F%), etc., were calculated by non-compartmental model using WinNonlin.
Exemplary compounds of Formula I (e.g., certain compounds of Formula IB (e.g., Formula IB-1)) were tested using the protocol above. Reference compound REF1 was tested as a control compound.

Sequence of GLP-1 Receptor (P43220 24-463): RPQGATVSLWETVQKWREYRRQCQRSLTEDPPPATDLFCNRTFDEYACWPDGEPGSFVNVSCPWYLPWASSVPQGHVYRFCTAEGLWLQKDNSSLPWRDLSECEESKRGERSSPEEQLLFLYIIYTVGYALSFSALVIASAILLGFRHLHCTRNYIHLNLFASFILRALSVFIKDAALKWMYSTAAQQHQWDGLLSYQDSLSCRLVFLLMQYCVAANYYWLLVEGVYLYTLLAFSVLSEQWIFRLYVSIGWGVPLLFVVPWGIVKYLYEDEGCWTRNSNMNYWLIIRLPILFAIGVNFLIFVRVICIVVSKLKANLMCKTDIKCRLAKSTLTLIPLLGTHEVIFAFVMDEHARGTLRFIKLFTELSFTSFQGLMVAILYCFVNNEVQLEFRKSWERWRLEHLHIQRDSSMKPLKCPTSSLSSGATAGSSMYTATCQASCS

Row | SMILES | EC50 [1] | also measured
1 | O=C(O)c1ccc2nc(CN3CCC(c4cccc5c4OCC(c4ccc(Cl)cc4F)N5)CC3)n(C[C@@H]3CCO3)c2n1 (stereo partly drawn) [Compound 124a, 2-((4-(3-(4-chloro-2-fluorophenyl)-3,4-dihydro-2H-benzo[b][1,4]oxazin-8-yl)piperidin-1-yl)methyl)-3-(((S)-oxetan-2-yl)methyl)-3H-imidazo[4,5-b]pyridine-5-carboxylic acid] | 0.2 to 20 nM | 
2 | O=C(O)c1ccc2nc(CN3CCC(c4cccc5c4OC[C@H](c4ccc(Cl)cc4F)O5)CC3)n(C[C@@H]3CCO3)c2c1 [Compound 120c, 2-((4-((S)-2-(4-chloro-2-fluorophenyl)-2,3-dihydrobenzo[b][1,4]dioxin-5-yl)piperidin-1-yl)methyl)-1-((S)-oxetan-2-ylmethyl)-1H-benzo[d]imidazole-6-carboxylic acid] | 20 to 200 nM | 
3 | CC1(c2ccc(Cl)cc2F)COc2c(cccc2C2CCN(Cc3nc4ccc(C(=O)O)nc4n3C[C@@H]3CCO3)CC2)O1 (stereo partly drawn) [Compound 127a, 2-((4-(2-(4-chloro-2-fluorophenyl)-2-methyl-2,3-dihydrobenzo[b][1,4]dioxin-5-yl)piperidin-1-yl)methyl)-3-((S)-oxetan-2-ylmethyl)-3H-imidazo[4,5-b]pyridine-5-carboxylic acid] | 0.2 to 20 nM | 
4 | O=C(O)c1ccc2nc(CN3CCC(c4cccc5c4OCC(c4ccc(Cl)cc4)O5)CC3)n(C[C@@H]3CCO3)c2n1 (stereo partly drawn) [Compound 111a, 2-((4-(2-(4-chlorophenyl)-2,3-dihydrobenzo[b][1,4]dioxin-5-yl)piperidin-1-yl)methyl)-3-(((S)-oxetan-2-yl)methyl)-3H-imidazo[4,5-b]pyridine-5-carboxylic acid] | ≤ 0.2 nM | 
5 | O=C(O)c1ccc2nc(CN3CCC(c4cccc5c4OCC(c4ccccc4F)C5)CC3)n(C[C@@H]3CCO3)c2n1 (stereo partly drawn) [Compound 122a, 2-((4-(3-(2-fluorophenyl) Chroman-8-yl)piperidin-1-yl)methyl)-3-(((S)-oxetan-2-yl)methyl)-3H-imidazo[4,5-b]pyridine-5-carboxylic acid] | 20 to 200 nM | 
6 | O=C(O)c1ccc2nc(CN3CCN(c4cccc5c4CCC(c4ccc(Cl)cc4F)O5)CC3)n(C[C@@H]3CCO3)c2n1 (stereo partly drawn) [Compound 123a, 2-((4-(2-(4-Chloro-2-fluorophenyl)chroman-5-yl)piperazin-1-yl)methyl)-3-((S)oxetan-2-ylmethyl)-3H-imidazo[4,5-b]pyridine-5-carboxylic acid] | 20 to 200 nM | 
7 | N#Cc1ccc(COc2cccc(C3CCN(Cc4nc5ccc(C(=O)O)cc5n4C[C@@H]4CCO4)CC3)n2)c(F)c1 [REF1] |  | Tmax ([2]; cynomolgus monkey, plasma, 1 mg/kg, oral (PO), Dose 1): 5.33 h; bioavailability ([2]; cynomolgus monkey, plasma, oral bioavailability): 3.14%; AUC0-24 h ([2]; oral (PO), Dose 1): 362 arbitrary unit; Cmax ([2]; oral (PO), Dose 1): 36.0 arbitrary unit
8 | O=C(O)c1ccc2nc(CN3CCC(c4cccc5c4OCC(c4ccc(Cl)cc4F)O5)CC3)n(C[C@@H]3CCO3)c2n1 (mixture of isomers) [Compound 104a, 2-((4-(2-(4-Chloro-2-fluorophenyl)-2,3-dihydrobenzo[b][1,4]dioxin-5-yl)piperidin-1-yl)methyl)-3-((S)-oxetan-2-ylmethyl)-3H-imidazo[4,5-b]pyridine-5-carboxylic acid] | 0.2 to 20 nM | 
9 | O=C(O)c1ccc2nc(CN3CCC(c4cccc5c4OCC(c4ccc(F)cc4)O5)CC3)n(C[C@@H]3CCO3)c2n1 (stereo partly drawn) [Compound 117a, 2-((4-(2-(4-fluorophenyl)-2,3-dihydrobenzo[b][1,4]dioxin-5-yl)piperidin-1-yl)methyl)-3-(((S)-oxetan-2-yl)methyl)-3H-imidazo[4,5-b]pyridine-5-carboxylic acid] | 0.2 to 20 nM | 
10 | O=C(O)c1ccc2nc(CN3CCC(c4cccc5c4OC[C@@H](c4ccc(Cl)cc4F)O5)CC3)n(C[C@@H]3CCO3)c2n1 [Compound 104b, 2-((4-((R)-2-(4-chloro-2-fluorophenyl)-2,3-dihydrobenzo[b][1,4]dioxin-5-yl)piperidin-1-yl)methyl)-3-(((S)-oxetan-2-yl)methyl)-3H-imidazo[4,5-b]pyridine-5-carboxylic acid] | 0.2 to 20 nM | 
11 | N#Cc1ccc(C2COc3c(cccc3C3CCN(Cc4nc5ccc(C(=O)O)nc5n4C[C@@H]4CCO4)CC3)O2)cc1 (stereo partly drawn) [Compound 118a, 2-((4-(2-(4-cyanophenyl)-2,3-dihydrobenzo[b][1,4]dioxin-5-yl)piperidin-1-yl)methyl)-3-(((S)-oxetan-2-yl)methyl)-3H-imidazo[4,5-b]pyridine-5-carboxylic acid] | ≤ 0.2 nM | 
12 | O=C(O)c1ccc2nc(CN3CCC(c4cccc5c4OCC(c4ccccc4F)N5)CC3)n(C[C@@H]3CCO3)c2n1 (stereo partly drawn) [Compound 125a, 2-((4-(3-(2-fluorophenyl)-3,4-dihydro-2H-benzo[b][1,4]oxazin-8-yl)piperidin-1-yl)methyl)-3-(((S)-oxetan-2-yl)methyl)-3H-imidazo[4,5-b]pyridine-5-carboxylic acid] | 20 to 200 nM | 
13 | C[C@H]1CN(c2cccc3c2OCC(c2ccc(Cl)cc2)O3)CCN1Cc1nc2ccc(C(=O)O)nc2n1C[C@@H]1CCO1 (stereo partly drawn) [Compound 114a, 2-(((2S)-4-(2-(4-chlorophenyl)-2,3-dihydrobenzo[b][1,4]dioxin-5-yl)-2-methylpiperazin-1-yl)methyl)-3-(((S)-oxetan-2-yl)methyl)-3H-imidazo[4,5-b]pyridine-5-carboxylic acid] | 0.2 to 20 nM | 
14 | O=C(O)c1ccc2nc(CN3CCC(c4cccc5c4OCC(c4ccccc4)C5)CC3)n(C[C@@H]3CCO3)c2n1 (stereo partly drawn) [Compound 103a, 3-(((S)-oxetan-2-yl)methyl)-2-((4-(3-phenylchroman-8-yl)piperidin-1-yl)methyl)-3Himidazo[4,5-b]pyridine-5-carboxylic acid] | 0.2 to 20 nM | 

— patent US20250214999A1, “HETEROCYCLIC GLP-1 AGONISTS” (Gasherbrum Bio, Inc., priority 2020, published 2025)
